Usually Ki stands for the equilibrium dissociation constant of an inhibitor or competing ligand from its target. Read a low Ki as higher affinity.

The values that follow come from US20250049967A1, “PET TRACERS FOR V[…] GAMMA1 RECEPTORS” (Hoffmann-La Roche Inc., priority 2022, published 2025).

One data set addresses h-GABA-A α2β2γ1 receptor (Homo sapiens (Human), UniProt P47869+Q8N1C3). Description: Xenopus oocyte two-electrode voltage clamp electrophysiology, modulation of GABA EC20 current. As to conditions: for Efficacy (GABA)%: % modulation of GABA EC20 = 100*(Fold increase−1), compound at 30-fold Ki α2β2γ1; for Potentiation of GABA-induced current in α2β2γ1 expressing oocytes: reference PAMs, GABA EC20. It counts as cell-based. As to the method:
Xenopus laevis oocytes at maturation stages V-VI were used for the expression of cloned mRNA encoding GABAA receptor subunits. Oocytes ready for RNA micro-injection were bought from Ecocyte, Castrop-Rauxel, Germany and stored in modified Barth's medium (composition in mM: NaCl 88, KCl 1, NaHCO3 2.4, HEPES 10, MgSO4 0.82, CaNO3 0.33, CaCl2 0.33, pH=7.5) at 20° C. until the experiment.
Oocytes were plated in 96-well plates for microinjection using the Roboinject automated instrument (MultiChannelSystems, Reutlingen, Germany). Approximately 50 nL of an aqueous solution containing the RNA transcripts for the subunits of the desired GABAA receptor subtype was injected into each oocyte. […] Oocytes were kept in modified Barth's medium (composition in mM: NaCl 88, KCl 1, NaHCO3 […], HEPES 10, MgSO4 0.82, CaNO3 0.33, CaCl2 0.33, pH=7.5) at 20° C. until the experiment.
Electrophysiological experiments were performed using the Roboocyte instrument (MultiChannelSystems, Reutlingen, Germany) on days 3 to 5 after the micro-injection of mRNA. During the experiment the oocytes were constantly superfused by a solution containing (in mM) NaCl 90, KCl 1, HEPES 5, MgCl2 1, CaCl2 1 (pH 7.4). Oocytes were impaled by two glass microelectrodes (resistance: 0.5-0.8 MΩ) which were filled with a solution containing KCl 1M+K-acetate 1.5 M and voltage-clamped to −80 mV. The recordings were performed at room temperature using the Roboocyte two-electrode voltage clamp system (Multichannelsystem). After an initial equilibration period of 1.5 min GABA was added for 1.5 min at a concentration evoking approximately 20% of a maximal current response (EC20). After another rest interval of 2.5 min GABA was again added evoking a response of similar amplitude and shape. […] Current traces were recorded at a digitization rate of 10 Hz during and shortly before and after the GABA application.
Each compound and concentration was tested on at least 3 oocytes. Different oocytes were used for different compound concentrations.
For the analysis, the digitized current traces of the first and second GABA response were superimposed and, if necessary, rescaled to equal maximal amplitudes. The ratio between the two responses during the time interval of test compound application was calculated point by point. The extremum of the resulting “ratio trace” was taken as the efficacy (“Fold increase”) of the compound expressed as “% modulation of GABA EC20” (100*(Fold increase−1)).
A general note: Two-electrode voltage clamp holds a large cell at a set potential and records current.

Data set [1] addresses human GABAA α1β3γ2 receptor (Homo sapiens (Human), UniProt P14867+P18507). Kind of data set: Binding assay, competition for [^3H]Flumazenil, HEK293F cells. The settings on record: for γ2/γ1 Selectivity Ratio: Ki α1β3γ2 (nM)/Ki α2β2γ1 (nM). The protocol: The affinity of compounds at GABAA γ2 subunit-containing receptors was measured by competition for [^3H]Flumazenil (81.1 Ci/mmol; Roche) binding to HEK293F cells expressing human (transiently transfected) receptors of composition α1β3γ2.
Harvested pellets from HEK293F cells expressing the different GABAA γ2 receptor subtypes were resuspended in Mannitol Buffer pH 7.2-7.4 and processed as described above for the cells expressing the GABAA γ1 subunit-containing receptors.
Assays were incubated to equilibrium for 1 hour at 4° C. and harvested onto GF/C uni-filters (Packard) by filtration using a Packard harvester and washing with ice-cold wash buffer (50 mM Tris; pH 7.5). After anhydrousing, filter-retained radioactivity was detected by liquid scintillation counting. Ki values were calculated using Excel-Fit (Microsoft) and are the means of two determinations.

In data set [2] the target is GABAA γ1 receptor (Mus musculus (Mouse), UniProt Q9R0Y8). Kind of data set: In vitro autoradiography, coronal brain sections of GABAA γ1 knockout and wild-type mice. It counts as binding. As to conditions: 0.3 nM radioligand, 30 minutes room temperature, knockout vs wild-type mouse brain sections. The protocol: Autoradiographical analyses of [^3H]-(I) and [^3H]-(II) were performed with coronal brain sections from GABAA γ1 receptor knockout mice (C57BL/6NTac-Gabrg1) and wild-type controls. Tissue sections (10 μm) were cut in a cryostat, thaw-mounted on microscope glass slides and incubated in incubation buffer (50 mM Tris-HCl, pH 7.4) containing 0.3 nM radioligand (molar activity 83 Ci/mmol and 81 Ci/mmol for [^3H]-(II) and [^3H]-(I), respectively) at room temperature for 30 minutes. After incubation, all sections were rinsed three times in ice-cold wash buffer (50 mM Tris-HCl, pH 7.4) for 10 minutes and dipped three times in distilled water at 4° C. Slide-mounted brain sections were dried in a ventilated fridge for at least 2 hours and exposed to a Fuji Imaging Plate for 5 days. The imaging plate was scanned at a resolution of 25 μm in a Fujifilm high-resolution plate scanner. Visualization and quantification of autoradiographies was performed by the MCID™ image analysis program.
Chain of GABAA γ1 receptor (Mus musculus (Mouse), UniProt Q9R0Y8) (Q9R0Y8 36-465 limits assumed): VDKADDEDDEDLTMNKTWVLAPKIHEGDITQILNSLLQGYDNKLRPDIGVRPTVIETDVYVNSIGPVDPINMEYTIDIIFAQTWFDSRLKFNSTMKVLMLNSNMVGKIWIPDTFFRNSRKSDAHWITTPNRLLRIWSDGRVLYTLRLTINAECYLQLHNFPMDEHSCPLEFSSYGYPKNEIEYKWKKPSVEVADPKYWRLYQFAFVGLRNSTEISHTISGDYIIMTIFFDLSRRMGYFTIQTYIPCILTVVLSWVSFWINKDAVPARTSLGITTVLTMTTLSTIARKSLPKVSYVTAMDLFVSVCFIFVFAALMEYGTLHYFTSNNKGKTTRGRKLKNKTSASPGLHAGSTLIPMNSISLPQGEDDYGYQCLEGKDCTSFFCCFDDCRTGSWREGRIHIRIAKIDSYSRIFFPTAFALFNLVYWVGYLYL

Data set [3] addresses human GABAA α1β2γ1 receptor (Homo sapiens (Human), UniProt P14867+Q8N1C3). Description: Binding assay, competition for [^3H]RO7239181, membranes from HEK293F cells. As to the method:
(§1) Harvested pellets from HEK293F cells expressing the different GABAA receptor subtypes were resuspended in Mannitol Buffer pH 7.2-7.4 (Mannitol 0.29M, Triethylamine 10 mM, Acetic acid 10 mM, EDTA 1 mM plus protease inhibitors (20 tablets Complete, Roche Diagnostics Cat. No. 05 056 489 001 per liter)), washed two times and then resuspended at 1:10 to 1:15 dilution in the same buffer. Cell disruption was performed by stirring the suspension in a Parr vessel #4637 at 435 psi for 15 minutes, and then the suspensions were centrifuged at 1000×g for 15 minutes at 4° C. (Beckman Avanti J-HC; rotor JS-4.2). The supernatant (S1) was transferred in a 2 l Schott flask and the pellet (P1) was resuspended with Mannitol Buffer up to 175 ml. The resuspended pellet was transferred into a 250 ml Corning centrifugal beaker and centrifuged at 1500×g for 10 minutes at 4° C. (Beckman Avanti J-HC; rotor JS-4.2). The supernatant (S1) was then transferred in the 2 l Schott flask and the pellet was discarded. […] The P2 and P3 protein concentration was determined with the BIORAD Standard assay method with bovine serum albumin as standard and measured on the NANO-Drop 1000. […]
(§2) Membrane homogenates were resuspended and polytronised (Polytron PT1200E Kinematica AG) in Potassium Phosphate 10 mM, KCl 100 mM binding buffer at pH 7.4 to a final assay concentration determined with a previous experiment. […]

The target of data set [4] is human GABAA α2β2γ1 receptor (Homo sapiens (Human), UniProt P47869+Q8N1C3). The data set is described as above. The protocol:
as §1, §2

Data set [5] concerns GABAA γ1 receptor. Description: In vivo PET scans in baboons, regional time-activity curves. The arrangement: species or system papio anubis olive brown baboons. As to conditions: baboon, intravenous bolus approx. 700 MBq, 90 min scan. As to the method: PET imaging experiments were performed in male papio anubis olive brown baboons to examine the characteristics of [^11C]-(I) and [^11C]-(II) in vivo. The final radiotracer product was radiochemically pure (>95%) up to 40 min post its end of synthesis with an average final calculated specific activity of >555 GBq/μmol. The PET camera used was the Siemens HRRT with an in-plane field-of-view (FOV) of 30 cm and an axial FOV of 24 cm. Each dynamic PET scan started with an intravenous bolus injection of the radiotracer (approx. 700 MBq) and continued for 90 min in a 3D list mode. A set of volumes of interest (VOIs) for 16 brain regions were defined on MRIs of individual animals referring to a standard VOI template. VOIs were transferred to PET space using the coregistration parameters to generate time-activity curves (TACs) of brain regions.

With `CN1C(=O)CN=C(c2cc(O)ccc2F)c2c1ccc(Cl)c2Cl` [Example 1, 6,7-dichloro-5-(2-fluoro-5-hydroxy-phenyl)-1-methyl-3H-1,4-benzodiazepin-2-one], the “Efficacy (GABA)%” value at h-GABA-A α2β2γ1 receptor was determined as 90%. The “γ2/γ1 Selectivity Ratio” value in data set [1] was 12.7.
`[3H]C([3H])([3H])N1C(=O)CN=C(c2cc(O)ccc2F)c2c1ccc(Cl)c2Cl` [[^3H]-(I), 6,7-Dichloro-5-(2-fluoro-5-hydroxy-phenyl)-1-([^3H3]methyl)-3H-1,4-benzodiazepin-2-one]: the “Specific binding in the amygdala” value on GABAA γ1 receptor [2] amounted to 65%.
As to `Cc1nnc2n1-c1ccc(Cl)cc1C(c1ccccc1Cl)=NC2` [Triazolam], the “Potentiation of GABA-induced current in α2β2γ1 expressing oocytes” value on h-GABA-A α2β2γ1 receptor was around 60%.
Still for that read-out and setting: the figure for `CN1C(=O)CN=C(c2ccccc2F)c2cc([N+](=O)[O-])ccc21` [Flunitrazepam] is around 60%.
As to `CN1C(=O)CN=C(c2cc(O)ccc2Cl)c2cc(Cl)ccc21` [RE-A, reference compound], the Ki in data set [3] worked out at 6.84 nM; in data set [4], 2.79 nM; in data set [1], 1.5 nM. Moreover, the “γ2/γ1 Selectivity Ratio” value in data set [1] stood at 0.54.
On to `Cc1ccc2c(c1Cl)C(c1cc(O)ccc1F)=NCC(=O)N2[11CH3]` [[^11C]-(II), [^11C]6-Chloro-5-(2-fluoro-5-hydroxy-phenyl)-1,7-dimethyl-3H-1,4-benzodiazepin-2-one], for which the “Time of brain uptake peaks” value with GABAA γ1 receptor [5] (comparison of tracers) is “earlier peaks than [^11C]-(I)”.
For `[11CH3]N1C(=O)CN=C(c2cc(O)ccc2F)c2c1ccc(Cl)c2Cl` [[^11C]-(I), [^11C]6,7-Dichloro-5-(2-fluoro-5-hydroxy-phenyl)-1-methyl-3H-1,4-benzodiazepin-2-one], in the data set on GABAA γ1 receptor [5], the Brain clearance result is “Slower clearance”.
For `[3H]C([3H])([3H])N1C(=O)CN=C(c2cc(O)ccc2F)c2c1ccc(C)c2Cl` [[^3H]-(II), 6-Chloro-5-(2-fluoro-5-hydroxy-phenyl)-7-methyl-1-([^3H3]methyl)-3H-1,4-benzodiazepin-2-one], the “Specific binding in the amygdala” value at GABAA γ1 receptor [2] came to 97%.
For the compound `Cc1ccc2c(c1Cl)C(c1cc(O)ccc1F)=NCC(=O)N2C` [Example 2, 6-chloro-5-(2-fluoro-5-hydroxy-phenyl)-1,7-dimethyl-3H-1,4-benzodiazepin-2-one], the “Efficacy (GABA)%” value on h-GABA-A α2β2γ1 receptor is listed as 70%. In addition, in data set [1], the “γ2/γ1 Selectivity Ratio” value is 39.0.
In the case of `Cc1ncc2n1-c1ccc(Cl)cc1C(c1ccccc1F)=NC2` [Midazolam], the “Potentiation of GABA-induced current in α2β2γ1 expressing oocytes” value at h-GABA-A α2β2γ1 receptor is around 60%.
